Reference: PubChem BioAssay AID1963828 (Molecular Pharmacology Branch, DTP, NCI, 2024)

Tested on: 991263-137-R1-J2-PDC complex spheroid viability
Assay: Anticancer human tumor 991263-137-R1-J2-PDC patient-derived colon adenocarcinoma cell line growth inhibition [POLQ]
Conditions: for IC50: curve of first compound; for viability, T/C: stronger effect = lower value
In short: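 Complex spheroid viability model combining PDC tumour cells with endothelial (HUVEC) and MSC stromal cells. Novobiocin, ART-558 or RP6685 were tested singly and in combination with standard and investigational anticancer drugs. Each was titrated in half-log steps from near clinical Cmax, or from 10 microM where Cmax was unknown.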

[1] = second compound 0.0316 µM, first compound 0.0316 µM
[2] = second compound 0.0316 µM, first compound 0.1 µM
[3] = second compound 0.0316 µM, first compound 0.316 µM
[4] = second compound 0.0316 µM, first compound 1 µM
[5] = second compound 0.0316 µM, first compound 3.16 µM
[6] = second compound 0.0316 µM, first compound 10 µM
[7] = second compound 0.1 µM, first compound 0.0316 µM
[8] = second compound 0.1 µM, first compound 0.1 µM
[9] = second compound 0.1 µM, first compound 0.316 µM
[10] = second compound 0.1 µM, first compound 1 µM
[11] = second compound 0.1 µM, first compound 3.16 µM
[12] = second compound 0.1 µM, first compound 10 µM
[13] = second compound 0.316 µM, first compound 0.0316 µM
[14] = second compound 0.316 µM, first compound 0.1 µM
[15] = second compound 0.316 µM, first compound 0.316 µM
[16] = second compound 0.316 µM, first compound 1 µM
[17] = second compound 0.316 µM, first compound 3.16 µM
[18] = second compound 0.316 µM, first compound 10 µM
[19] = second compound 1 µM, first compound 0.0316 µM
[20] = second compound 1 µM, first compound 0.1 µM
[21] = second compound 1 µM, first compound 0.316 µM
[22] = second compound 1 µM, first compound 1 µM
[23] = second compound 1 µM, first compound 3.16 µM
[24] = second compound 1 µM, first compound 10 µM
[25] = second compound 3.16 µM, first compound 0.0316 µM
[26] = second compound 3.16 µM, first compound 0.1 µM
[27] = second compound 3.16 µM, first compound 0.316 µM
[28] = second compound 3.16 µM, first compound 1 µM
[29] = second compound 3.16 µM, first compound 3.16 µM
[30] = second compound 3.16 µM, first compound 10 µM
[31] = second compound 10 µM, first compound 0.0316 µM
[32] = second compound 10 µM, first compound 0.1 µM
[33] = second compound 10 µM, first compound 0.316 µM
[34] = second compound 10 µM, first compound 1 µM
[35] = second compound 10 µM, first compound 3.16 µM
[36] = second compound 10 µM, first compound 10 µM
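Note: spheroids exposed to compounds for 7 days before readout.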
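Throughout, for viability, T/C: 100% = DMSO vehicle control viability.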

## CC(C)n1c(=O)n(C)c2cnc3cc(F)c(-c4ccc(OCCCN5CCCCC5)nc4)cc3c21 + Cc1cccc(N(C)C(=O)C2C(O)CCN2c2nc(C)cc(C(F)(F)F)c2C#N)c1
Second compound 0.0316 µM
  IC50: > 10 µM
Second compound 0.1 µM
  IC50: > 10 µM
Second compound 0.316 µM
  IC50: > 10 µM
Second compound 1 µM
  IC50: > 10 µM
Second compound 3.16 µM
  IC50: > 10 µM
Second compound 10 µM
  IC50: > 10 µM
[1]
  viability, T/C: 98.9%
[2]
  viability, T/C: 97.1%
[3]
  viability, T/C: 99.3%
[4]
  viability, T/C: 90.9%
[5]
  viability, T/C: 98.3%
[6]
  viability, T/C: 83.9%
[7]
  viability, T/C: 96.6%
[8]
  viability, T/C: 99.9%
[9]
  viability, T/C: 115%
[10]
  viability, T/C: 90.7%
[11]
  viability, T/C: 74%
[12]
  viability, T/C: 79%
[13]
  viability, T/C: 83.8%
[14]
  viability, T/C: 101%
[15]
  viability, T/C: 102%
[16]
  viability, T/C: 106%
[17]
  viability, T/C: 109%
[18]
  viability, T/C: 80.4%
[19]
  viability, T/C: 92.1%
[20]
  viability, T/C: 99.5%
[21]
  viability, T/C: 116%
[22]
  viability, T/C: 90.8%
[23]
  viability, T/C: 99.1%
[24]
  viability, T/C: 81.2%
[25]
  viability, T/C: 85.9%
[26]
  viability, T/C: 98.3%
[27]
  viability, T/C: 90.2%
[28]
  viability, T/C: 101%
[29]
  viability, T/C: 109%
[30]
  viability, T/C: 61.3%
[31]
  viability, T/C: 82%
[32]
  viability, T/C: 104%
[33]
  viability, T/C: 86.7%
[34]
  viability, T/C: 80.1%
[35]
  viability, T/C: 111%
[36]
  viability, T/C: 67.2%

## CCc1cc2c(N3CCc4c(cc(Cn5ccnc5)cc4-c4cn(C)nc4C(F)(F)F)C3=O)cc(C)nc2c(OC)n1 + Cc1cccc(N(C)C(=O)C2C(O)CCN2c2nc(C)cc(C(F)(F)F)c2C#N)c1
Second compound 0.0316 µM
  IC50: > 10 µM
Second compound 0.1 µM
  IC50: > 10 µM
Second compound 0.316 µM
  IC50: > 10 µM
Second compound 1 µM
  IC50: > 10 µM
Second compound 3.16 µM
  IC50: > 10 µM
Second compound 10 µM
  IC50: > 10 µM
[1]
  viability, T/C: 99.4%
[2]
  viability, T/C: 111%
[3]
  viability, T/C: 95.7%
[4]
  viability, T/C: 97.9%
[5]
  viability, T/C: 96.7%
[6]
  viability, T/C: 89.5%
[7]
  viability, T/C: 109%
[8]
  viability, T/C: 107%
[9]
  viability, T/C: 96.2%
[10]
  viability, T/C: 87.9%
[11]
  viability, T/C: 98%
[12]
  viability, T/C: 99.8%
[13]
  viability, T/C: 113%
[14]
  viability, T/C: 93.8%
[15]
  viability, T/C: 101%
[16]
  viability, T/C: 91.4%
[17]
  viability, T/C: 107%
[18]
  viability, T/C: 88.9%
[19]
  viability, T/C: 100%
[20]
  viability, T/C: 101%
[21]
  viability, T/C: 84.5%
[22]
  viability, T/C: 98.3%
[23]
  viability, T/C: 104%
[24]
  viability, T/C: 82%
[25]
  viability, T/C: 101%
[26]
  viability, T/C: 96%
[27]
  viability, T/C: 106%
[28]
  viability, T/C: 111%
[29]
  viability, T/C: 95.3%
[30]
  viability, T/C: 96.7%
[31]
  viability, T/C: 95.7%
[32]
  viability, T/C: 105%
[33]
  viability, T/C: 90.9%
[34]
  viability, T/C: 90.7%
[35]
  viability, T/C: 84.5%
[36]
  viability, T/C: 92.1%

## O=C(c1cc(Cc2n[nH]c(=O)c3ccccc23)ccc1F)N1CCN(C(=O)C2CC2)CC1 + Cc1cccc(N(C)C(=O)C2C(O)CCN2c2nc(C)cc(C(F)(F)F)c2C#N)c1
Second compound 0.0316 µM
  IC50: > 10 µM
Second compound 0.1 µM
  IC50: > 10 µM
Second compound 0.316 µM
  IC50: > 10 µM
Second compound 1 µM
  IC50: > 10 µM
Second compound 3.16 µM
  IC50: > 10 µM
Second compound 10 µM
  IC50: > 10 µM
[1]
  viability, T/C: 105%
[2]
  viability, T/C: 99.1%
[3]
  viability, T/C: 92.4%
[4]
  viability, T/C: 105%
[5]
  viability, T/C: 79.5%
[6]
  viability, T/C: 79.3%
[7]
  viability, T/C: 101%
[8]
  viability, T/C: 104%
[9]
  viability, T/C: 93.2%
[10]
  viability, T/C: 84.4%
[11]
  viability, T/C: 87.1%
[12]
  viability, T/C: 99%
[13]
  viability, T/C: 92.5%
[14]
  viability, T/C: 118%
[15]
  viability, T/C: 96%
[16]
  viability, T/C: 99.3%
[17]
  viability, T/C: 90%
[18]
  viability, T/C: 72%
[19]
  viability, T/C: 90.2%
[20]
  viability, T/C: 91.3%
[21]
  viability, T/C: 91.5%
[22]
  viability, T/C: 111%
[23]
  viability, T/C: 107%
[24]
  viability, T/C: 91.4%
[25]
  viability, T/C: 80.8%
[26]
  viability, T/C: 95.3%
[27]
  viability, T/C: 92.8%
[28]
  viability, T/C: 80.4%
[29]
  viability, T/C: 108%
[30]
  viability, T/C: 95.8%
[31]
  viability, T/C: 96.5%
[32]
  viability, T/C: 101%
[33]
  viability, T/C: 86.1%
[34]
  viability, T/C: 100%
[35]
  viability, T/C: 106%
[36]
  viability, T/C: 90.4%

## CNCc1ccc(-c2[nH]c3cc(F)cc4c3c2CCNC4=O)cc1 + Nc1ccc(C#CCN(C(=O)Cc2ncc(C(F)(F)F)cc2C(F)(F)F)c2ccc(F)cc2)nn1
Second compound 0.0316 µM
  IC50: > 10 µM
Second compound 0.1 µM
  IC50: > 10 µM
Second compound 0.316 µM
  IC50: > 10 µM
Second compound 1 µM
  IC50: > 10 µM
Second compound 3.16 µM
  IC50: > 10 µM
Second compound 10 µM
  IC50: > 10 µM
[1]
  viability, T/C: 98.4%
[2]
  viability, T/C: 91.8%
[3]
  viability, T/C: 98.2%
[4]
  viability, T/C: 93.4%
[5]
  viability, T/C: 97.7%
[6]
  viability, T/C: 117%
[7]
  viability, T/C: 112%
[8]
  viability, T/C: 99.5%
[9]
  viability, T/C: 114%
[10]
  viability, T/C: 95.1%
[11]
  viability, T/C: 110%
[12]
  viability, T/C: 108%
[13]
  viability, T/C: 104%
[14]
  viability, T/C: 97.2%
[15]
  viability, T/C: 96.3%
[16]
  viability, T/C: 101%
[17]
  viability, T/C: 93.2%
[18]
  viability, T/C: 119%
[19]
  viability, T/C: 99.2%
[20]
  viability, T/C: 90.1%
[21]
  viability, T/C: 93%
[22]
  viability, T/C: 97%
[23]
  viability, T/C: 106%
[24]
  viability, T/C: 106%
[25]
  viability, T/C: 94.5%
[26]
  viability, T/C: 98%
[27]
  viability, T/C: 103%
[28]
  viability, T/C: 99.7%
[29]
  viability, T/C: 97.1%
[30]
  viability, T/C: 100%
[31]
  viability, T/C: 88.1%
[32]
  viability, T/C: 97.5%
[33]
  viability, T/C: 99.3%
[34]
  viability, T/C: 94.5%
[35]
  viability, T/C: 103%
[36]
  viability, T/C: 109%
